Measured values published in article PMC9898036, “VIP152 is a selective CDK9 inhibitor with pre-clinical in vitro and in vivo efficacy in chronic lymphocytic leukemia” (Leukemia, 2022).

How the values were obtained:
LTK = LTK (Homo sapiens, UniProt P29376); assay: KINOMEscan: LTK; type: binding; settings: 1000 nM, read-out: Percent Control
ASK2 = ASK2 (Homo sapiens, UniProt O95382); assay: KINOMEscan: ASK2; type: binding; settings: 1000 nM, read-out: Percent Control
MUSK = MUSK (Homo sapiens, UniProt O15146); assay: KINOMEscan: MUSK; type: binding; settings: 1000 nM, read-out: Percent Control
TSSK1B = TSSK1B (Homo sapiens, UniProt Q9BXA7); assay: KINOMEscan: TSSK1B; type: binding; settings: 100 nM, read-out: Percent Control
ACVRL1 = ACVRL1 (Homo sapiens, UniProt P37023); assay: KINOMEscan: ACVRL1; type: binding; settings: 1000 nM, read-out: Percent Control
CDC2L1 = CDC2L1 (Homo sapiens, UniProt P21127); assay: KINOMEscan: CDC2L1; type: binding; settings: 1000 nM, read-out: Percent Control
TIE1 = TIE1 (Homo sapiens, UniProt P35590); assay: KINOMEscan: TIE1; type: binding; settings: 100 nM, read-out: Percent Control
CDK7 = CDK7 (Homo sapiens, UniProt P50613); assay: KINOMEscan: CDK7; type: binding
Protocol: The structure and synthesis of VIP152 were recently described by Lücking et al.. (Fig. 1A); however, the selectivity of the molecule in cellular systems has yet to be explored. […] We also performed this experiment at 1000 nM, where CDK9 was inhibited at 99%. […] We found a strong concordance between our data and those of Lücking when comparing the most inhibited kinases. Potential off-target effects of VIP152 were next tested in vitro at a concentration of 10 µM for off-target activity against a broad range of receptors, transporters, ion channels, and enzymes (n = 138) using the Eurofins Diversity Panel.
Kinomescan Kinase Profiling Assay
Kinomescan Assay was performed at DiscoverRX and described in Fabian, et al. 2005, Nat.
Biotechnol. In brief, kinases were produced and subsequently tagged with DNA for qPCR detection.
Streptavidin-coated magnetic beads were bound to biotinylated kinase ligands to serve as a solid support.
VIP152 was dissolved in DMSO and tested across a 10 serial threefold dilution set and compared to a test compound and a DMSO control. Kinases which were inhibited by VIP152 would not be bound to the solid-support resulting in decreased substrate for the qPCR reaction. Kinome map was produced via TreeSpot Analysis from DiscoverRX. […]
NanoBRETTM Target Engagement Assay Protocol […]
The cell and lipid:DNA […]
complex was dispensed into a sterile tissue culture dish and incubated for 22-24 hours. Test compounds were then delivered from the compound source plate to the wells of a 384-well white NBS plate by Echo 550. Cells with NanoBRET Tracer Reagent were then prepared by first removing media from dish of transfected HEK293 cells via aspiration, trypsinization, and allowing cells to dissociate from the dish. Trypsin was neutralized using medium containing serum and centrifuged at 200g for 5 minutes to pellet the cells. Cell density was then adjusted to 2E05 cells/mL in Opti-MEM without phenol red. Complete 20X NanoBRET Tracer Reagent was prepared with Tracer Dilution Buffer and dispensed at a ratio of 1:20 Reagent to cells in the tube. The cell

BRSK1 = BRSK1 (Homo sapiens, UniProt Q8TDC3); assay: KINOMEscan: BRSK1; type: binding; settings: 1000 nM, read-out: Percent Control
PFPK5(P.falciparum) = PFPK5(P.falciparum) (Plasmodium falciparum, UniProt P61075); assay: DiscoverX KINOMEscan kinase profiling; type: binding; settings: kinase PFPK5(P.falciparum) (Entrez MAL13P1.279); compound concentration 1000 nM; read-out: Percent Control
α2C receptor = target: T1, α2C receptor (Homo sapiens, UniProt P18825); assay: Eurofins Diversity Panel: adrenergic α2C receptor; type: binding
T1 construct: purchased Eurofins

KIT(V559D,T670I) = KIT(V559D,T670I) (Homo sapiens, UniProt P10721, T670I/V559D); assay: KINOMEscan: KIT(V559D,T670I); type: binding; settings: 1000 nM, read-out: Percent Control
TLK2 = TLK2 (Homo sapiens, UniProt Q86UE8); assay: KINOMEscan: TLK2; type: binding; settings: 100 nM, read-out: Percent Control
MRCKB = MRCKB (Homo sapiens, UniProt Q9Y5S2); assay: KINOMEscan: MRCKB; type: binding; settings: 1000 nM, read-out: Percent Control
CAMK2D = CAMK2D (Homo sapiens, UniProt Q13557); assay: KINOMEscan: CAMK2D; type: binding; settings: 1000 nM, read-out: Percent Control
KIT(D816H) = KIT(D816H) (Homo sapiens, UniProt P10721, D816H); assay: KINOMEscan: KIT(D816H); type: binding; settings: 1000 nM, read-out: Percent Control
YSK1 = YSK1 (Homo sapiens, UniProt O00506); assay: KINOMEscan: YSK1; type: binding; settings: 100 nM, read-out: Percent Control
[1] = target: CDK9 in complex with Cyclin T2 (Homo sapiens, UniProt P50750); assay: HotSpot radiometric kinase assay; type: biochemical; parameters: purchased ReactionBio; settings: 10-dose series from 0.5 nM to 10 µM; vs dinaciclib, KB-0742, atuveciclib
Protocol: (§1) We next compared VIP152 to other CDK inhibitors currently in development. […] The compounds were tested in a 10-dose series from 0.5 nM to 10 µM against CDK9 in complex with Cyclin T1/T2/K, CDK7/Cyclin H, and GSK3α/β. […]
(§2) HotSpot Kinase Assay Protocol
(§3) Compounds tested via HotSpot Kinase Assay were sent to ReactionBio for the experiment. The […]
(§4) Kinase substrate was added to reaction buffer (20 mM Hepes (pH 7.5), 10 mM MgCl2, 1 mM EGTA, 0.01% Brij35, 0.02 mg/ml BSA, 0.1 mM Na3VO4, 2 mM DTT, 1% DMSO). Cofactors and kinases were gently added to the reaction buffer. Compounds to be tested were dissolved in 100% DMSO and were delivered into the kinase reaction mixture by Acoustic technology (Echo550; nanoliter range) and incubated for 20 min at room temperature. 32P-ATP was delivered into the reaction mixture and the reaction was allowed to proceed for 2 hours. Kinase activity was detected by P81 filter-binding method.

GSK3β = GSK3β (Homo sapiens, UniProt P49841); assay: HotSpot radiometric kinase assay; type: biochemical; parameters: purchased ReactionBio; settings: 10-dose series from 0.5 nM to 10 µM; vs dinaciclib, KB-0742, atuveciclib
Protocol: as §1, §2, §3, §4

[2] = target: CDK9 in complex with Cyclin T1 (Homo sapiens, UniProt P50750); assay: HotSpot radiometric kinase assay; type: biochemical; parameters: purchased ReactionBio
Protocol: as §1, §2, §3, §4

Cannabinoid CB1 = Cannabinoid CB1 (Homo sapiens, UniProt P21554); assay: Eurofins Diversity Panel; type: binding; settings: hum, Conc. 10 μM
ULK2 = ULK2 (Homo sapiens, UniProt Q8IYT8); assay: KINOMEscan: ULK2; type: binding; settings: 100 nM, read-out: Percent Control

Chain of CDK7 (P50613 whole entry): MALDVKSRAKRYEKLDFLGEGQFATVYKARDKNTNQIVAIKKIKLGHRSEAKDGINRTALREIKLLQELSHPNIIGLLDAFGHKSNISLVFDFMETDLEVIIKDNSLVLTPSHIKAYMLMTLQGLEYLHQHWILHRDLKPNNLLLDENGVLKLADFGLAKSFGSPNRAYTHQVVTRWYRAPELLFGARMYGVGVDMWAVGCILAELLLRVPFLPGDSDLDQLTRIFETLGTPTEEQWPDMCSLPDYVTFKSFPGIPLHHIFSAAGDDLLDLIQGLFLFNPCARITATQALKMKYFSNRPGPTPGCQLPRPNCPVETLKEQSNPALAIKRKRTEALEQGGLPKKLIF
Chain of CDK9 in complex with Cyclin T1 (P50750 whole entry): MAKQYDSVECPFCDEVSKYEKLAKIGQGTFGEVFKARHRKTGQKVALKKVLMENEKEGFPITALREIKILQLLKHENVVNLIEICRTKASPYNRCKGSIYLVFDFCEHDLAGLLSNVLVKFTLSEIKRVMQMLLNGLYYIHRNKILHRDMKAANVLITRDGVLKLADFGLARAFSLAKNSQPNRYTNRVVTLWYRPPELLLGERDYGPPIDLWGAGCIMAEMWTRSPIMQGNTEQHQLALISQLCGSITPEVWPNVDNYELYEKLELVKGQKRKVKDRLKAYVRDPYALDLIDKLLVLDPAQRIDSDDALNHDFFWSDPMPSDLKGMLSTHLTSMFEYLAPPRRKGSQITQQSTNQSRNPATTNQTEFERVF
Chain of CDK9 in complex with Cyclin T1 (O60563 whole entry partner): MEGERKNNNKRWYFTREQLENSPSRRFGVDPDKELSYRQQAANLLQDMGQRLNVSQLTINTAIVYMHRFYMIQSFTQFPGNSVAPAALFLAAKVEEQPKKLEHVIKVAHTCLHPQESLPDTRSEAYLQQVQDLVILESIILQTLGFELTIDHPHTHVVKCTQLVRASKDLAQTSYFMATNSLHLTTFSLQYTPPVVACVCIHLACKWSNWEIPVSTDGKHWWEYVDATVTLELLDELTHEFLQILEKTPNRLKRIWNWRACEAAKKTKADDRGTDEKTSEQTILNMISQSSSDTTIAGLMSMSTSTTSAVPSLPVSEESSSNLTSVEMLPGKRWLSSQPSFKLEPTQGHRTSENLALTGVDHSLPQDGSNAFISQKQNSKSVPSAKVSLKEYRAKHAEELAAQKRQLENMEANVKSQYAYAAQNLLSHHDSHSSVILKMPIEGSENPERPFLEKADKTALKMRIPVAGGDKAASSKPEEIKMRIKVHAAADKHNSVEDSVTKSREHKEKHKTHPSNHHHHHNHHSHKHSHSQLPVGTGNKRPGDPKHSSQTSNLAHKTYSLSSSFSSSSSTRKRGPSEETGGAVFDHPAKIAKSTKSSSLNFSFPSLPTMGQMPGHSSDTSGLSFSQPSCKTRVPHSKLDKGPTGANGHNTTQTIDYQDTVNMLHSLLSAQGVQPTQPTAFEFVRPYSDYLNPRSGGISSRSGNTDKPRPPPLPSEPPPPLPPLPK
Chain of PFPK5(P.falciparum) (P61075 whole entry): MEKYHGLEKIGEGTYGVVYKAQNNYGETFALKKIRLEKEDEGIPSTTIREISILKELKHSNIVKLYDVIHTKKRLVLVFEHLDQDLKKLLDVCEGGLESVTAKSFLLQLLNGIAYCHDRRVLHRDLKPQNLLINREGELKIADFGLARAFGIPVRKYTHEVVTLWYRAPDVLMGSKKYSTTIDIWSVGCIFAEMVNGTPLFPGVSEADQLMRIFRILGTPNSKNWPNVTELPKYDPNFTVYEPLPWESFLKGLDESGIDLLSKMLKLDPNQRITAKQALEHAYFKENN
Chain of CDC2L1 (P21127 whole entry): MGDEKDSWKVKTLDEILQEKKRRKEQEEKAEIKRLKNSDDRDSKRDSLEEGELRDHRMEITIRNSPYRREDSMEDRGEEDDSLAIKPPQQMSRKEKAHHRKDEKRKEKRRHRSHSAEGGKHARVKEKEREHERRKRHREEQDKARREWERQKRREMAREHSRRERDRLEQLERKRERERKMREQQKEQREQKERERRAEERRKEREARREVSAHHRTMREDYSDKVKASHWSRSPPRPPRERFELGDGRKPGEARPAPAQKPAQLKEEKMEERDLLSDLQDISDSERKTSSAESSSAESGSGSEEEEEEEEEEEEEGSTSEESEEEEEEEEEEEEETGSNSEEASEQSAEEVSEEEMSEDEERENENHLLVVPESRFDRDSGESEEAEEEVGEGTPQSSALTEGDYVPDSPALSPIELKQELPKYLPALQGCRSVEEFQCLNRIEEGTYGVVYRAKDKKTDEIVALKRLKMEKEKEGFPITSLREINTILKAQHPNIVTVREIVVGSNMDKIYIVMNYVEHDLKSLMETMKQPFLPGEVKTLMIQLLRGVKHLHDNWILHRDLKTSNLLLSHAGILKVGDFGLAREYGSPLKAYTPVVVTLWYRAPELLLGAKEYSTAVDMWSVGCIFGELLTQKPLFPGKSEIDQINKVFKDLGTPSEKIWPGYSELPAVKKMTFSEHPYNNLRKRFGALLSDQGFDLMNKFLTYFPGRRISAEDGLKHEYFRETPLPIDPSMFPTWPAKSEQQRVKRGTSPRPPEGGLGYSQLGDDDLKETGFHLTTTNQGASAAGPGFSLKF
Chain of TSSK1B (Q9BXA7 whole entry): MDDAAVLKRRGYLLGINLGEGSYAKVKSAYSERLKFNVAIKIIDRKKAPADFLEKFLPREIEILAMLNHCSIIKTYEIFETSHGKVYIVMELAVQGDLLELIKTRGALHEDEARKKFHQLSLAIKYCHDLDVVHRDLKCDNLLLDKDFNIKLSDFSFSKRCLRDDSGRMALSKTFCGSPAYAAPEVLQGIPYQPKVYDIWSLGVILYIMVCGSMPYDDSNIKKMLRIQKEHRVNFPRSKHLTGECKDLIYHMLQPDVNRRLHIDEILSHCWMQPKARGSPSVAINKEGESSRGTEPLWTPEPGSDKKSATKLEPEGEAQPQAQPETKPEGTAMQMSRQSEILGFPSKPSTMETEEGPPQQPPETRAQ
Chain of GSK3β (P49841 whole entry): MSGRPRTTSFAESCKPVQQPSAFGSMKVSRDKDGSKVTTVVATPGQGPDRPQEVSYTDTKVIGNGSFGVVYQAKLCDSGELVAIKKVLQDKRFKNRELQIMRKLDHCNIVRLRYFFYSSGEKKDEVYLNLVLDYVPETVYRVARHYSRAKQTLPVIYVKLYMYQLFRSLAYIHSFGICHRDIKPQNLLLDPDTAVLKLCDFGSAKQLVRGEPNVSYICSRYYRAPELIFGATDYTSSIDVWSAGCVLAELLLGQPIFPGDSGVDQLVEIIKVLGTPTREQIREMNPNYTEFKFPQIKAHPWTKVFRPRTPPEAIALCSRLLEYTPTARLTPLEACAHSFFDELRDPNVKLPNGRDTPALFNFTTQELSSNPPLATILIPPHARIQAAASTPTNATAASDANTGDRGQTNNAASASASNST
Chain of TLK2 (Q86UE8 whole entry): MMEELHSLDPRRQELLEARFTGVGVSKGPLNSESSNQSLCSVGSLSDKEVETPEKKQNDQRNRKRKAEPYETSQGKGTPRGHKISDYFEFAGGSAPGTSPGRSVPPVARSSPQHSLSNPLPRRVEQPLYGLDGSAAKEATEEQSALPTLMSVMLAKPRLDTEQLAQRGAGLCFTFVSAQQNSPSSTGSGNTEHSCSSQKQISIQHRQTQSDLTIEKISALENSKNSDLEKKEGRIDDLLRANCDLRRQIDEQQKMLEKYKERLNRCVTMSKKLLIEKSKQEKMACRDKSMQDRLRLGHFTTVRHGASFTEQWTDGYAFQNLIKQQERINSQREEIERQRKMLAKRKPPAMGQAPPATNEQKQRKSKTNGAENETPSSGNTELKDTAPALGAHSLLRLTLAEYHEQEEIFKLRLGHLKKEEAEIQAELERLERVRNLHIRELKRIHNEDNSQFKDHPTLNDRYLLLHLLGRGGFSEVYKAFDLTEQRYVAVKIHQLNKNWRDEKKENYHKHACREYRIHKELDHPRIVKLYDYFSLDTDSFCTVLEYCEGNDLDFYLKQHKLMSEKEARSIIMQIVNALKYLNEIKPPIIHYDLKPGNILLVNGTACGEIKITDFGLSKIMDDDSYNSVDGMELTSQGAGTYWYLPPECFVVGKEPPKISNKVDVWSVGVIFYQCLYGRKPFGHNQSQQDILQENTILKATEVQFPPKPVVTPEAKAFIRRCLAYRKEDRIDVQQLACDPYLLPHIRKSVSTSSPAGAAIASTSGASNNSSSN
Chain of ACVRL1 (P37023 22-503): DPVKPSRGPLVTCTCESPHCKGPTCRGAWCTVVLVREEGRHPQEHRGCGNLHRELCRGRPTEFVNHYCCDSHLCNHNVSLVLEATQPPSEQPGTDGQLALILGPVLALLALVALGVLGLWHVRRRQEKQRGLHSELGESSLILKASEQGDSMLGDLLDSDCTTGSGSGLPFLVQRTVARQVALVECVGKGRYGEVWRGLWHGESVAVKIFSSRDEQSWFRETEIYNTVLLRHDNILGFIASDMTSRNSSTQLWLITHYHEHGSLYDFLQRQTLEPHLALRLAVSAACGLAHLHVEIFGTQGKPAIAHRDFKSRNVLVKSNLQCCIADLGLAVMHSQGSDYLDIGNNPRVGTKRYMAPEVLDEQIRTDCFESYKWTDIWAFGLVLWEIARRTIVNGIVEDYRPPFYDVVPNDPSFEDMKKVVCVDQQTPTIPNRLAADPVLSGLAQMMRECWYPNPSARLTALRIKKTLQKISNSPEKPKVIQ
Chain of YSK1 (O00506 whole entry): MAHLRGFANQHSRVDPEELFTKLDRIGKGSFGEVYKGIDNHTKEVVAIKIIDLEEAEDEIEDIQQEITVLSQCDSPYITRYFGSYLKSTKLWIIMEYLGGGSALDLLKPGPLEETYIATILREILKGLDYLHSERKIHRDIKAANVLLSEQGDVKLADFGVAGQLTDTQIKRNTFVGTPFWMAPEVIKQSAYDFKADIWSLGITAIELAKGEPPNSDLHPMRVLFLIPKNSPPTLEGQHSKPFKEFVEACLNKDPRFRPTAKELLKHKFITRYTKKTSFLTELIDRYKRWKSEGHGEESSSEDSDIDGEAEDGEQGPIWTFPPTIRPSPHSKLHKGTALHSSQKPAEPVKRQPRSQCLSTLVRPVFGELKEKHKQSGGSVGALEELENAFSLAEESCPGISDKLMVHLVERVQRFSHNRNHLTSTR

COc1cc(F)ccc1-c1cc(Nc2cc(CS(C)(=N)=O)ccn2)ncc1F (centres unmarked) [VIP152]
remaining binding at 1 µM (LTK): 100% | remaining binding at 1 µM (ASK2): 91% | remaining binding at 1 µM (MUSK): 58% | remaining binding at 0.1 µM (TSSK1B): 78% | remaining binding at 1 µM (ACVRL1): 38% | remaining binding at 1 µM (CDC2L1): 96% | remaining binding at 0.1 µM (TIE1): 100% | inhibition at 0.1 µM (CDK7; 100 nM): 64% | inhibition at 1 µM (CDK7; 1000 nM): 97.9% | remaining binding at 0.1 µM (CDK7; CDK7, 100 nM, read-out: Percent Control): 36% | remaining binding at 1 µM (CDK7; CDK7, 1000 nM, read-out: Percent Control): 2.1% | remaining binding at 1 µM (BRSK1): 83% | remaining binding at 1 µM (PFPK5(P.falciparum)): 99% | IC50 (α2C receptor): 340 nM | remaining binding at 1 µM (KIT(V559D,T670I)): 64% | remaining binding at 0.1 µM (TLK2): 100% | remaining binding at 1 µM (MRCKB): 59% | remaining binding at 1 µM (CAMK2D): 69% | remaining binding at 1 µM (KIT(D816H)): 59% | remaining binding at 0.1 µM (YSK1): 100% | potency versus the other inhibitors tested [1]: higher potency | potency versus the other inhibitors tested (GSK3β): higher potency | potency versus the other inhibitors tested ([2]; 10-dose series from 0.5 nM to 10 µM, vs dinaciclib, KB-0742, atuveciclib): higher potency | increase in potency compared with other inhibitors currently in development ([2]; CDK9): > 10 fold | inhibition at 10 µM (Cannabinoid CB1): 16% | remaining binding at 0.1 µM (ULK2): 100%
